Laboratory results: ChEMBL document CHEMBL3272271, “Folate antagonists. 13. 2,4-Diamino-6-](alpha,alpha,alpha-trifluoro-m-tolyl)thio]quinazoline and related 2,4-diamino-6-[(phenyl- and naphthyl)thio]quinazolines, a unique class of antimetabolites with extraordinary antimalarial and antibacterial effects” (J Med Chem, 1978)
Values after ≈ are worked out from the molar mass of the structure shown. Active and inactive are the calls of the source. The rule behind the calls is not given here.

Columns and labels:
Plasmodium berghei [1] = assay: Antimalarial activity against Plasmodium berghei infected in mouse assessed as increase in mean survival days of host at 20 mg/kg, sc administered 72 hrs after infection relative to control; assay type: functional; settings: route subcutaneous
Plasmodium berghei [2] = assay: Ratio of quinine hydrochloride SD90 to compound SD90 for trophozoite-induced Plasmodium berghei infected in mouse assessed as daily dose required to suppression of 90% parasite infection administered with diet for 6 days; assay type: functional
Plasmodium berghei [3] = assay: Antimalarial activity against Plasmodium berghei infected in mouse assessed as disease cure from parasite infection at 640 mg/kg, sc administered 72 hrs after infection; assay type: functional, organism-based; design: dose 640 mg/kg
Plasmodium gallinaceum [4] = assay: Antimalarial activity against sporozoite-induced Plasmodium gallinaceum infected in white leghorn chicken assessed as disease cure from parasite infection at 10 mg/kg, sc administered 72 hrs after infection; assay type: functional, organism-based; design: dose 10 mg/kg
Mus musculus [5] = assay: Toxicity in Plasmodium berghei infected mouse assessed as mortality at 640 mg/kg, sc administered 72 hrs after infection measured after 2 to 5 days; assay type: organism-based; design: dose 640 mg/kg, route subcutaneous; settings: in vivo
Plasmodium gallinaceum [6] = assay: Antimalarial activity against sporozoite-induced Plasmodium gallinaceum infected in white leghorn chicken assessed as disease cure from parasite infection at 80 mg/kg, sc administered 72 hrs after infection; assay type: functional, organism-based; design: dose 80 mg/kg
Plasmodium gallinaceum [7] = assay: Antimalarial activity against sporozoite-induced Plasmodium gallinaceum infected in white leghorn chicken assessed as disease cure from parasite infection at 320 mg/kg, sc administered 72 hrs after infection; assay type: functional, organism-based; design: dose 320 mg/kg
Plasmodium berghei [8] = assay: Antimalarial activity against Plasmodium berghei infected in mouse assessed as disease cure from parasite infection at 320 mg/kg, sc administered 72 hrs after infection; assay type: functional, organism-based; design: dose 320 mg/kg
Plasmodium berghei [9] = assay: Antimalarial activity against Plasmodium berghei infected in mouse assessed as increase in mean survival days of host at 5 mg/kg, sc administered 72 hrs after infection relative to control; assay type: functional; settings: route subcutaneous
Plasmodium berghei [10] = assay: Antimalarial activity against Plasmodium berghei infected in mouse assessed as increase in mean survival days of host at 10 mg/kg, sc administered 72 hrs after infection relative to control; assay type: functional; settings: route subcutaneous
Plasmodium berghei [11] = assay: Antimalarial activity against Plasmodium berghei infected in mouse assessed as increase in mean survival days of host at 2.5 mg/kg, sc administered 72 hrs after infection relative to control; assay type: functional; settings: route subcutaneous
Gallus gallus = assay: Toxicity in sporozoite-induced Plasmodium gallinaceum infected white leghorn chicken assessed as mortality at 320 mg/kg, sc administered 72 hrs after infection measured up to 6 days; assay type: organism-based; design: dose 320 mg/kg, route subcutaneous; settings: in vivo
Plasmodium berghei [12] = assay: Antimalarial activity against trophozoite-induced Plasmodium berghei infected in mouse assessed as daily dose required to suppression of 90% parasite infection administered with diet for 6 days; assay type: functional
Plasmodium gallinaceum [13] = assay: Antimalarial activity against sporozoite-induced Plasmodium gallinaceum infected in white leghorn chicken assessed as disease cure from parasite infection at 160 mg/kg, sc administered 72 hrs after infection; assay type: functional, organism-based; design: dose 160 mg/kg
Plasmodium berghei [14] = assay: Antimalarial activity against Plasmodium berghei infected in mouse assessed as disease cure from parasite infection at 40 mg/kg, sc administered 72 hrs after infection; assay type: functional, organism-based; design: dose 40 mg/kg
Mus musculus [15] = assay: Toxicity in Plasmodium berghei infected mouse assessed as mortality at 320 mg/kg, sc administered 72 hrs after infection measured after 2 to 5 days; assay type: organism-based; design: dose 320 mg/kg, route subcutaneous; settings: in vivo
Plasmodium gallinaceum [16] = assay: Antimalarial activity against sporozoite-induced Plasmodium gallinaceum infected in white leghorn chicken assessed as disease cure from parasite infection at 40 mg/kg, sc administered 72 hrs after infection; assay type: functional, organism-based; design: dose 40 mg/kg
Plasmodium berghei [17] = assay: Antimalarial activity against Plasmodium berghei infected in mouse assessed as increase in mean survival days of host at 1.25 mg/kg, sc administered 72 hrs after infection relative to control; assay type: functional; settings: route subcutaneous
Plasmodium berghei [18] = assay: Antimalarial activity against Plasmodium berghei infected in mouse assessed as disease cure from parasite infection at 80 mg/kg, sc administered 72 hrs after infection; assay type: functional, organism-based; design: dose 80 mg/kg
Plasmodium gallinaceum [19] = assay: Antimalarial activity against sporozoite-induced Plasmodium gallinaceum infected in white leghorn chicken assessed as disease cure from parasite infection at 20 mg/kg, sc administered 72 hrs after infection; assay type: functional, organism-based; design: dose 20 mg/kg
Plasmodium berghei [20] = assay: Antimalarial activity against Plasmodium berghei infected in mouse assessed as disease cure from parasite infection at 160 mg/kg, sc administered 72 hrs after infection; assay type: functional, organism-based; design: dose 160 mg/kg
Pseudomonas aeruginosa = assay: Antibacterial activity against Pseudomonas aeruginosa 28 by gradient plate test; assay type: functional
Escherichia coli = assay: Antibacterial activity against Escherichia coli Vogel by gradient plate test; assay type: functional
Plasmodium berghei [21] = assay: Antimalarial activity against Plasmodium berghei infected in mouse assessed as disease cure from parasite infection at 10 mg/kg, sc administered 72 hrs after infection; assay type: functional, organism-based; design: dose 10 mg/kg
Plasmodium gallinaceum [22] = assay: Antimalarial activity against sporozoite-induced Plasmodium gallinaceum infected in white leghorn chicken assessed as disease cure from parasite infection at 60 mg/kg, sc administered 72 hrs after infection; assay type: functional, organism-based; design: dose 60 mg/kg
Plasmodium berghei [23] = assay: Antimalarial activity against chloroquine-resistant Plasmodium berghei assessed as drug resistance; assay type: functional, organism-based
Staphylococcus aureus [24] = assay: Antibacterial activity against Staphylococcus aureus UC-96 by gradient plate test; assay type: functional
Enterococcus faecalis = assay: Antibacterial activity against Streptococcus faecalis MGH-2 by gradient plate test; assay type: functional
Plasmodium gallinaceum [25] = assay: Antimalarial activity against trophozoite-induced Plasmodium gallinaceum infected in white leghorn chicken assessed as increase in mean survival days of host at 10 mg/kg, sc administered 72 hrs after infection relative to control; assay type: functional; settings: route subcutaneous
Plasmodium gallinaceum [26] = assay: Antimalarial activity against sporozoite-induced Plasmodium gallinaceum infected in white leghorn chicken assessed as disease cure from parasite infection at 15 mg/kg, sc administered 72 hrs after infection; assay type: functional, organism-based; design: dose 15 mg/kg
Plasmodium gallinaceum [27] = assay: Antimalarial activity against trophozoite-induced Plasmodium gallinaceum infected in white leghorn chicken assessed as increase in mean survival days of host at 2.5 mg/kg, sc administered 72 hrs after infection relative to control; assay type: functional; settings: route subcutaneous
Plasmodium gallinaceum [28] = assay: Antimalarial activity against sporozoite-induced Plasmodium gallinaceum infected in white leghorn chicken assessed as disease cure from parasite infection at 480 mg/kg, sc administered 72 hrs after infection; assay type: functional, organism-based; design: dose 480 mg/kg
Plasmodium gallinaceum [29] = assay: Antimalarial activity against trophozoite-induced Plasmodium gallinaceum infected in white leghorn chicken assessed as increase in mean survival days of host at 20 mg/kg, sc administered 72 hrs after infection relative to control; assay type: functional; settings: route subcutaneous
Plasmodium berghei [30] = assay: Antimalarial activity against Plasmodium berghei infected in mouse assessed as disease cure from parasite infection at 20 mg/kg, sc administered 72 hrs after infection; assay type: functional, organism-based; design: dose 20 mg/kg
Plasmodium gallinaceum [31] = assay: Antimalarial activity against trophozoite-induced Plasmodium gallinaceum infected in white leghorn chicken assessed as increase in mean survival days of host at 1.25 mg/kg, sc administered 72 hrs after infection relative to control; assay type: functional; settings: route subcutaneous
Plasmodium gallinaceum [32] = assay: Antimalarial activity against sporozoite-induced Plasmodium gallinaceum infected in white leghorn chicken assessed as disease cure from parasite infection at 120 mg/kg, sc administered 72 hrs after infection; assay type: functional, organism-based; design: dose 120 mg/kg
Plasmodium gallinaceum [33] = assay: Antimalarial activity against sporozoite-induced Plasmodium gallinaceum infected in white leghorn chicken assessed as disease cure from parasite infection at 7.5 mg/kg, sc administered 72 hrs after infection; assay type: functional, organism-based; design: dose 7.5 mg/kg
Shigella sonnei = assay: Antibacterial activity against Shigella sonnei C-10 by gradient plate test; assay type: functional
Plasmodium gallinaceum [34] = assay: Antimalarial activity against sporozoite-induced Plasmodium gallinaceum infected in white leghorn chicken assessed as disease cure from parasite infection at 240 mg/kg, sc administered 72 hrs after infection; assay type: functional, organism-based; design: dose 240 mg/kg
Staphylococcus aureus [35] = assay: Antibacterial activity against drug-resistant Staphylococcus aureus S18713 by gradient plate test; assay type: functional
Plasmodium gallinaceum [36] = assay: Antimalarial activity against sporozoite-induced Plasmodium gallinaceum infected in white leghorn chicken assessed as disease cure from parasite infection at 30 mg/kg, sc administered 72 hrs after infection; assay type: functional, organism-based; design: dose 30 mg/kg
Plasmodium berghei [37] = assay: Antimalarial activity against cycloguanil-resistant Plasmodium berghei assessed as drug resistance; assay type: functional, organism-based
Plasmodium gallinaceum [38] = assay: Antimalarial activity against trophozoite-induced Plasmodium gallinaceum infected in white leghorn chicken assessed as increase in mean survival days of host at 40 mg/kg, sc administered 72 hrs after infection relative to control; assay type: functional; settings: route subcutaneous
Plasmodium gallinaceum [39] = assay: Antimalarial activity against trophozoite-induced Plasmodium gallinaceum infected in white leghorn chicken assessed as increase in mean survival days of host at 5 mg/kg, sc administered 72 hrs after infection relative to control; assay type: functional; settings: route subcutaneous

With CCc1nc(N)nc(N)c1-c1ccc(Cl)cc1 [PYRIMETHAMINE] the MST (Plasmodium berghei [1]) was 7.7 days, the Ratio (Plasmodium berghei [2]) was 270 and the Activity (Plasmodium berghei [3]) was “Active”. The Activity (Plasmodium gallinaceum [4]) was “Active”, the Activity (Mus musculus [5]) was “Toxic” and the Activity (Plasmodium gallinaceum [6]) was “Active”. The Activity (Plasmodium gallinaceum [7]) was “Active”, the Activity (Plasmodium berghei [8]) was “Active” and the MST (Plasmodium berghei [9]) was 5.3 days. For the same compound, the MST (Plasmodium berghei [10]) was 6.1 days, the MST (Plasmodium berghei [11]) was 4.7 days and the Activity (Gallus gallus) was “Toxic”. For the same compound, the SD90 (Plasmodium berghei [12]) was 0.28 mg/kg/day, the Activity (Plasmodium gallinaceum [13]) was “Active” and the Activity (Plasmodium berghei [14]) was “Active”. For the same compound, the Activity (Mus musculus [15]) was “Toxic”, the Activity (Plasmodium gallinaceum [16]) was “Active” and the MST (Plasmodium berghei [17]) was 3.1 days. The Activity (Plasmodium berghei [18]) was “Active”, the Activity (Plasmodium gallinaceum [19]) was “Active” and the Activity (Plasmodium berghei [20]) was “Active”.
For Nc1nc(N)c2cc(Sc3ccc(Br)cc3)ccc2n1, the MST (Plasmodium berghei [1]) was 14.4 days, the Ratio (Plasmodium berghei [2]) was 62 and the Activity (Plasmodium berghei [3]) was “Active”. The MIC (Pseudomonas aeruginosa) was greater than 25 µg/mL, the Activity (Plasmodium berghei [8]) was “Active” and the MIC (Escherichia coli) was 1 µg/mL (≈ 2.88 µM). The Activity (Plasmodium berghei [21]) was “Active”, the Activity (Plasmodium gallinaceum [22]) was “Active” and the Activity (Plasmodium berghei [23]) was “inactive”. For the same compound, the MST (Plasmodium berghei [9]) was 6.7 days, the MST (Plasmodium berghei [10]) was 19.6 days and the MST (Plasmodium berghei [11]) was 3.6 days. The MIC (Staphylococcus aureus [24]) was less than 0.25 µg/mL, the MIC (Enterococcus faecalis) was less than 0.25 µg/mL and the MST (Plasmodium gallinaceum [25]) was 8.2 days. For the same compound, the Activity (Plasmodium gallinaceum [26]) was “Active”, the SD90 (Plasmodium berghei [12]) was 1.2 mg/kg/day and the MST (Plasmodium gallinaceum [27]) was 6 days. For the same compound, the Activity (Plasmodium gallinaceum [28]) was “Active”, the MST (Plasmodium gallinaceum [29]) was 11.8 days and the Activity (Plasmodium berghei [14]) was “Active”. The Activity (Plasmodium berghei [30]) was “Active”, the MST (Plasmodium gallinaceum [31]) was 3 days and the Activity (Plasmodium gallinaceum [32]) was “Active”. For the same compound, the Activity (Plasmodium gallinaceum [33]) was “Active”, the MIC (Shigella sonnei) was 2 µg/mL (≈ 5.76 µM) and the Activity (Plasmodium gallinaceum [34]) was “Active”. For the same compound, the MIC (Staphylococcus aureus [35]) was less than 0.25 µg/mL, the MST (Plasmodium berghei [17]) was 2.2 days and the Activity (Plasmodium gallinaceum [36]) was “Active”. For the same compound, the Activity (Plasmodium berghei [18]) was “Active”, the Activity (Plasmodium berghei [37]) was “Active” and the Activity (Plasmodium berghei [20]) was “Active”. The MST (Plasmodium gallinaceum [38]) was 12.8 days and the MST (Plasmodium gallinaceum [39]) was 7.2 days.
